Among the data in PubChem BioAssay AID328 (DTP/NCI, 2004) are T/C values, retold here.

The test deals with BDF1 mice, P388 leukemia ip, median survival T/C. Nature of the test: NCI In Vivo Anticancer Drug Screen. Data for tumor model P388 Leukemia (intraperitoneal) in B6D2F1 (BDF1) mice. Particulars: endpoint: median survival time, higher = longer survival. The method, boiled down:
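Reported as T/C, where T is the survival measurement in dosed animals and C the same measurement in vehicle controls.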

Setting [1] is: dose: 25.0 mg/kg/injection, schedule: Q01DX009 (ip), vehicle: other.
Where [2] appears, read: dose: 50.0 mg/kg/injection, schedule: Q01DX009 (ip), vehicle: other.
Setting [3] is: dose: 100.0 mg/kg/injection, schedule: Q01DX009 (ip), vehicle: other.
Setting [4] is: dose: 200.0 mg/kg/injection, schedule: Q04DX003 (ip), vehicle: other.
Where [5] appears, read: dose: 400.0 mg/kg/injection, schedule: Q04DX003 (ip), vehicle: other.
[6] abbreviates: dose: 100.0 mg/kg/injection, schedule: Q04DX002 (ip), vehicle: saline with Tween-80.
Where [7] appears, read: dose: 200.0 mg/kg/injection, schedule: Q04DX002 (ip), vehicle: saline with Tween-80.
The mark [8] stands for this setting: dose: 400.0 mg/kg/injection, schedule: Q04DX002 (ip), vehicle: saline with Tween-80.

Inconclusive results and toxic doses are left out. Non-standard residues stand in square brackets, D forms with d. Residues, ends and D or L forms follow the SMILES beside them. ξ: configuration not given here. *: point of attachment. Nphe = O=C(O)CNCc1ccccc1; ξF = NC(Cc1ccccc1)C(=O)O; Ms = CS(=O)(=O)*

With `NC(=O)CC(N)C(=O)O` (centres undefined), the T/C (dose: 200.0 mg/kg/injection, schedule: Q01DX009 (ip), vehicle: saline) is 100 % of control; the T/C (dose: 200.0 mg/kg/injection, schedule: Q01DX010 (ip), vehicle: other) was 110 % of control; the T/C (dose: 400.0 mg/kg/injection, schedule: Q01DX009 (ip), vehicle: saline) is 100 % of control; the T/C (dose: 400.0 mg/kg/injection, schedule: Q01DX010 (ip), vehicle: other) was 120 % of control; the T/C (dose: 400.0 mg/kg/injection, schedule: Q01DX010 (ip), vehicle: saline with Tween-80) is 86 % of control; the T/C (dose: 800.0 mg/kg/injection, schedule: Q01DX009 (ip), vehicle: saline) was 110 % of control. The T/C (dose: 800.0 mg/kg/injection, schedule: Q01DX010 (ip), vehicle: other) was 100 % of control; the T/C (dose: 1600.0 mg/kg/injection, schedule: Q01DX009 (ip), vehicle: saline) is 115 % of control; the T/C (dose: 1600.0 mg/kg/injection, schedule: Q01DX010 (ip), vehicle: other) is 115 % of control; the T/C (dose: 1600.0 mg/kg/injection, schedule: Q01DX010 (ip), vehicle: saline with Tween-80) was 150 % of control.
For `CS(=O)(=O)N(CC(=O)NC(Cc1ccccc1)C(=O)O)Cc1ccccc1` (centres undefined) (Ms-[Nphe]-[ξF]-OH), the T/C is, setting by setting: (dose: 12.5 mg/kg/injection, schedule: Q04DX003 (ip), vehicle: sodium bicarbonate) 100 % of control; under setting [1], 114 % of control; (dose: 25.0 mg/kg/injection, schedule: Q04DX003 (ip), vehicle: other) 94 % of control; (dose: 25.0 mg/kg/injection, schedule: Q04DX003 (ip), vehicle: sodium bicarbonate) 106 % of control; under setting [2], 100 % of control; (dose: 50.0 mg/kg/injection, schedule: Q04DX003 (ip), vehicle: other) 103 % of control. Further, the T/C is, setting by setting: (dose: 50.0 mg/kg/injection, schedule: Q04DX003 (ip), vehicle: sodium bicarbonate) 104 % of control; under setting [3], 114 % of control; (dose: 100.0 mg/kg/injection, schedule: Q04DX003 (ip), vehicle: other) 106 % of control; (dose: 100.0 mg/kg/injection, schedule: Q04DX003 (ip), vehicle: sodium bicarbonate) 96 % of control; under setting [4], 104 % of control; (dose: 200.0 mg/kg/injection, schedule: Q04DX003 (ip), vehicle: sodium bicarbonate) 98 % of control. In addition, the T/C under setting [5] is 103 % of control and the T/C (dose: 400.0 mg/kg/injection, schedule: Q04DX003 (ip), vehicle: sodium bicarbonate) was 90 % of control.
For `C=CCN(CC=C)CCNc1nc(C(Cl)(Cl)Cl)nc2ccc(Cl)cc12`, the T/C is, setting by setting: (dose: 100.0 mg/kg/injection, schedule: Q04DX003 (ip), vehicle: saline with Tween-80) 100 % of control; (dose: 200.0 mg/kg/injection, schedule: Q04DX003 (ip), vehicle: saline with Tween-80) 112 % of control; (dose: 400.0 mg/kg/injection, schedule: Q04DX003 (ip), vehicle: saline with Tween-80) 116 % of control.
Consider `CC(=O)OC(CC(O)(C(F)(F)F)C(F)(F)F)C(C)(C)C` (centres undefined), for which the T/C (dose: 12.5 mg/kg/injection, schedule: Q04DX003 (ip), vehicle: saline with Tween-80) was 90 % of control; the T/C (dose: 25.0 mg/kg/injection, schedule: Q04DX003 (ip), vehicle: saline with Tween-80) was 90 % of control; the T/C (dose: 50.0 mg/kg/injection, schedule: Q04DX003 (ip), vehicle: saline with Tween-80) was 90 % of control.
On to `CCCCCCCCCCCCCCCCSc1ccc(C)cc1`, for which the T/C (dose: 5.0 mg/kg/injection, schedule: Q04DX003 (ip), vehicle: saline sonified) is 105 % of control; the T/C (dose: 10.0 mg/kg/injection, schedule: Q04DX003 (ip), vehicle: saline sonified) was 105 % of control; the T/C (dose: 20.0 mg/kg/injection, schedule: Q04DX003 (ip), vehicle: saline sonified) was 100 % of control; the T/C under setting [4] was 100 % of control; the T/C under setting [5] is 100 % of control.
Turning to `CC1(C)SC(=S)N(c2ccc([N+](=O)[O-])cc2)C1=O`, the T/C is 115 % of control (dose: 75.0 mg/kg/injection, schedule: Q01DX009 (ip), vehicle: saline with Tween-80); 113 % of control (dose: 150.0 mg/kg/injection, schedule: Q01DX009 (ip), vehicle: saline with Tween-80); 96 % of control (dose: 300.0 mg/kg/injection, schedule: Q01DX009 (ip), vehicle: saline with Tween-80).
Consider `Cc1c2oc3c(C)ccc(C(=O)NCCc4ccccn4)c3nc-2c(C(=O)NCCc2ccccn2)c(N)c1=O`, for which the T/C reads like this: under setting [6], 101 % of control; under setting [7], 92 % of control; under setting [8], 97 % of control.
Turning to `CCOc1cccc2c1C(=O)c1c(O)c3c(c(O)c1C2=O)C[C@@](O)(C(C)=O)C[C@@H]3OC1CC(N)C(O)C(C)O1` (some centres undefined), the T/C is 123 % of control (dose: 6.25 mg/kg/injection, schedule: Q04DX003 (ip), vehicle: water) and 108 % of control (dose: 50.0 mg/kg/injection, schedule: Q04DX003 (ip), vehicle: water).
As for `Cn1c(=O)[nH]c(=O)c2nc(-c3cccnc3)c(-c3ccncc3)nc21`, the T/C runs as follows: under setting [6], 101 % of control; under setting [7], 99 % of control; under setting [8], 110 % of control.
As for `OCCC[P+](c1ccccc1)(c1ccccc1)c1ccccc1`, the T/C reads like this: (dose: 50.0 mg/kg/injection, schedule: Q04DX003 (ip), vehicle: Klucel (hydroxypropylcellulose) (HPC)) 113 % of control; (dose: 100.0 mg/kg/injection, schedule: Q04DX003 (ip), vehicle: Klucel (hydroxypropylcellulose) (HPC)) 109 % of control.
For `CCOC(=O)/C(C#N)=C1\CCc2cc(OC)ccc21`, the T/C is 92 % of control (dose: 100.0 mg/kg/injection, schedule: Q01DX001 (ip), vehicle: saline with Tween-80); 88 % of control (dose: 200.0 mg/kg/injection, schedule: Q01DX001 (ip), vehicle: saline with Tween-80); 88 % of control (dose: 400.0 mg/kg/injection, schedule: Q01DX001 (ip), vehicle: saline with Tween-80).
As for `[Cl][Hg][CH2]CC1CC=CCC1` (centres undefined), the T/C was 113 % of control (dose: 6.25 mg/kg/injection, schedule: Q01DX009 (ip), vehicle: saline with Tween-80); 104 % of control (dose: 6.25 mg/kg/injection, schedule: Q04DX003 (ip), vehicle: saline sonified); 117 % of control (dose: 12.5 mg/kg/injection, schedule: Q01DX009 (ip), vehicle: saline with Tween-80); 122 % of control (dose: 12.5 mg/kg/injection, schedule: Q04DX003 (ip), vehicle: saline sonified); 118 % of control (dose: 25.0 mg/kg/injection, schedule: Q04DX003 (ip), vehicle: saline sonified).
Consider `COc1cccc(C(=O)O)c1OS(=O)(=O)c1ccc(C)cc1`, for which the T/C runs as follows: under setting [1], 108 % of control; under setting [2], 100 % of control; under setting [3], 100 % of control; (dose: 200.0 mg/kg/injection, schedule: Q01DX009 (ip), vehicle: other) 101 % of control; (dose: 400.0 mg/kg/injection, schedule: Q01DX009 (ip), vehicle: other) 103 % of control.
For the compound `CCC1CC[N-]CC1.CCC1CC[N-]CC1.[Cl][Pt+2]([Cl])([Cl])[Cl]`, the T/C runs as follows: (dose: 3.12 mg/kg/injection, schedule: Q01DX009 (ip), vehicle: saline) 107 % of control; (dose: 6.25 mg/kg/injection, schedule: Q01DX009 (ip), vehicle: saline) 110 % of control; (dose: 12.5 mg/kg/injection, schedule: Q01DX009 (ip), vehicle: saline) 110 % of control.
Consider `N#Cc1c(N)sc(N)c1C#N`, for which the T/C (dose: 200.0 mg/kg/injection, schedule: Q01DX009 (ip), vehicle: Klucel (hydroxypropylcellulose) (HPC)) was 115 % of control and the T/C (dose: 400.0 mg/kg/injection, schedule: Q01DX009 (ip), vehicle: Klucel (hydroxypropylcellulose) (HPC)) is 110 % of control.
With `Nc1nc(N)nc(CCP(CCc2nc(N)nc(N)n2)CCc2nc(N)nc(N)n2)n1`, the T/C is, setting by setting: (dose: 50.0 mg/kg/injection, schedule: Q04DX003 (ip), vehicle: saline sonified) 100 % of control; (dose: 100.0 mg/kg/injection, schedule: Q04DX003 (ip), vehicle: saline sonified) 110 % of control; (dose: 200.0 mg/kg/injection, schedule: Q04DX003 (ip), vehicle: saline sonified) 110 % of control.
